We go through twelve molecules from patent US9983218B2, “Indole and indoline derivatives and methods of use thereof” (AbbVie Inc., priority 2008, dated 2018).

pEC50: −log10 of the molar value.

For this test, the system named is SK-N-SH human neuroblastoma cells. The experiment in a line: Serum deprivation/JC-1 mitochondrial membrane potential (MMP) assay. Format: cell-based. As to conditions: Homo sapiens; for Emax: SK-N-SH, percent maximal intensity in JC-1 ratio normalized to 10 μM dimebolin, read-out: JC-1 max %; for pEC50: SK-N-SH cells, serum deprivation ~18 hours, JC-1 ratio normalized to peak value for 10 μM dimebolin, single curve fit to mean data of n=2-3, read-out: EC50. In a few lines:
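Cells were serum-deprived ~18 h in MEM with or without compound (DMSO ≤1%), then stained with JC-1 for 35 min at 37° C. The red/green fluorescence ratio (560/595 vs 485/535 nm) was normalized to the peak response of 10 μM dimebolin. EC50 came from one curve fit to mean data (n=2-3, duplicates).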

For `Cc1ccc2c(c1)c1c(n2-c2ccc3ncccc3c2)C2CCN(CC2)C1` [Example 217, 9-methyl-6-quinolin-6-yl-3,4,5,6-tetrahydro-1H-2,5-ethanoazepino[4,3-b]indole], the Emax amounted to 182% and the pEC50 (commonly −log10 of the EC50, conventionally taken in molar units) was 5.53.

Turning to `Cc1ccc2c(c1)c1c(n2CC(=O)Nc2ccc(Cl)cc2)C2CCN(CC2)C1` [Example 155, N-(4-chlorophenyl)-2-(9-methyl-1,3,4,5-tetrahydro-6H-2,5-ethanoazepino[4,3-b]indol-6-yl)acetamide], the Emax came to 63% and the negative-log EC50 (pEC50) is 5.12.

On to `Cc1ccc(CCn2c3c(c4cc(C(C)C)ccc42)C2CCC(C3)N2C)cn1` (stereo not drawn) [Example 99, 2-isopropyl-11-methyl-5-[2-(6-methylpyridin-3-yl)ethyl]-5,6,7,8,9,10-hexahydro-7,10-epiminocyclohepta[b]indole], for which the Emax came to 138% and the pEC50 was 5.51.

As to `Cc1ccc2c(c1)c1c(n2CCc2ccc(C)nc2)CC2CCC1N2CC(F)(F)F` (stereo not drawn) [Example 14, 2-methyl-5-[2-(6-methylpyridin-3-yl)ethyl]-11-(2,2,2-trifluoroethyl)-5,6,7,8,9,10-hexahydro-7,10-epiminocyclohepta[b]indole], the Emax turned out to be 110% and the negative-log EC50 (pEC50) is 5.32.

In the case of `Cc1ccc(CCn2c3c(c4cc(F)ccc42)C2CCC(C3)N2C)cc1` (stereo not drawn) [Example 84, 2-fluoro-11-methyl-5-[2-(4-methylphenyl)ethyl]-5,6,7,8,9,10-hexahydro-7,10-epiminocyclohepta[b]indole], the Emax was 173% and the pEC50 was 5.17.

For the molecule `Cc1ccc2c(c1)c1c(n2CCc2ccc(Cl)cc2)C[C@H]2CC[C@@H]1N2C` [Example 44, (7R,10S)-5-[2-(4-chlorophenyl)ethyl]-2,11-dimethyl-5,6,7,8,9,10-hexahydro-7,10-epiminocyclohepta[b]indole], the Emax amounted to 291% and the negative-log EC50 (pEC50) was 5.48.

In the case of `Cc1ccc2c(c1)c1c(n2-c2ccc3ccncc3c2)C2CCN(CC2)C1` [Example 216, 6-isoquinolin-7-yl-9-methyl-3,4,5,6-tetrahydro-1H-2,5-ethanoazepino[4,3-b]indole], the Emax was determined as 284% and the pEC50 was 5.38.

For the molecule `Cc1ccc(/C=C/n2c3c(c4cc(C)ccc42)[C@@H]2CC[C@H](C3)N2C)cc1` [Example 59, (7R,10S)-2,11-dimethyl-5-[(E)-2-(4-methylphenyl)vinyl]-5,6,7,8,9,10-hexahydro-7,10-epiminocyclohepta[b]indole], the Emax amounted to 202% and the pEC50 was 5.38.

For `c1ccc2c(c1)c1c(n2-c2ccc3ccncc3c2)C2CCN(CC2)C1` [Example 270, 6-(isoquinolin-7-yl)-3,4,5,6-tetrahydro-1H-2,5-ethanoazepino[4,3-b]indole], the Emax stood at 270% and the pEC50 was 5.55.

For the molecule `Cc1ccc2c(c1)c1c(n2/C=C\c2ccc(C)nc2)C2CCN(CC2)C1` [Example 147, 9-methyl-6-[(Z)-2-(6-methylpyridin-3-yl)vinyl]-3,4,5,6-tetrahydro-1H-2,5-ethanoazepino[4,3-b]indole], the Emax was determined as 266% and the pEC50 was 5.60.

Consider `c1cncc(Cn2c3c(c4ccccc42)CN2CCC3CC2)c1` [Example 188, 6-(pyridin-3-ylmethyl)-3,4,5,6-tetrahydro-1H-2,5-ethanoazepino[4,3-b]indole], for which the Emax came out at 96% and the pEC50 is 5.19.

Turning to `Clc1ccc2nc(Cn3c4c(c5ccccc53)CN3CCC4CC3)cn2n1` [Example 257, 6-[(6-chloroimidazo[1,2-b]pyridazin-2-yl)methyl]-3,4,5,6-tetrahydro-1H-2,5-ethanoazepino[4,3-b]indole], the Emax was found to be 155% and the pEC50 is 5.44.
